Reference: PubChem BioAssay (NCI)
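Growth conditions: 96-well plates. Treatment: test compound, 48 hours, 5 concentrations. Analysis: linear interpolation between bracketing concentrations; unreached endpoints set to highest concentration. TGI is the concentration that stops growth completely.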

Key:
Test in all cases: NCI tumour cell line growth inhibition, 48 h
SN12K1 renal = test system: SN12K1 renal
MOLT-4 leukemia = test system: MOLT-4 leukemia
SK-MEL-28 melanoma = test system: SK-MEL-28 melanoma
HOP-62 NSCLC = test system: HOP-62 NSCLC
LOX IMVI melanoma = test system: LOX IMVI melanoma
NCI-H226 lung = test system: NCI-H226 lung
OVCAR-8 ovarian = test system: OVCAR-8 ovarian
OVCAR-4 ovarian = test system: OVCAR-4 ovarian
MALME-3M melanoma = test system: MALME-3M melanoma
HCT-116 colon = test system: HCT-116 colon
SF-295 CNS = test system: SF-295 CNS
DMS 114 small cell lung = test system: DMS 114 small cell lung
SNB-78 CNS = test system: SNB-78 CNS
HCT-15 colon = test system: HCT-15 colon
COLO 205 colon = test system: COLO 205 colon
M19-MEL melanoma = test system: M19-MEL melanoma
UO-31 renal = test system: UO-31 renal
CCRF-CEM leukemia = test system: CCRF-CEM leukemia
A549 NSCLC = test system: A549 NSCLC
SF-539 CNS = test system: SF-539 CNS
DMS 273 small cell lung = test system: DMS 273 small cell lung
SK-OV-3 ovarian = test system: SK-OV-3 ovarian
UACC-257 melanoma = test system: UACC-257 melanoma
HT29 colon = test system: HT29 colon
KM12 colon = test system: KM12 colon
OVCAR-3 ovarian = test system: OVCAR-3 ovarian
UACC-62 melanoma = test system: UACC-62 melanoma
P388/ADR leukemia = test system: P388/ADR leukemia
SW-620 colon = test system: SW-620 colon
NCI-H23 lung = test system: NCI-H23 lung
SK-MEL-2 melanoma = test system: SK-MEL-2 melanoma
SN12C renal = test system: SN12C renal
NCI-H460 lung = test system: NCI-H460 lung
OVCAR-5 ovarian = test system: OVCAR-5 ovarian
K-562 leukemia = test system: K-562 leukemia
XF 498 CNS = test system: XF 498 CNS
CAKI-1 renal = test system: CAKI-1 renal
HOP-18 NSCLC = test system: HOP-18 NSCLC
HOP-92 NSCLC = test system: HOP-92 NSCLC
A498 renal = test system: A498 renal
RPMI-8226 leukemia = test system: RPMI-8226 leukemia
SNB-75 CNS = test system: SNB-75 CNS
U251 CNS = test system: U251 CNS
MCF7 breast = test system: MCF7 breast
RXF 393 renal = test system: RXF 393 renal
NCI/ADR-RES ovarian = test system: NCI/ADR-RES ovarian
IGROV1 ovarian = test system: IGROV1 ovarian
HCC-2998 colon = test system: HCC-2998 colon
SF-268 CNS = test system: SF-268 CNS
EKVX NSCLC = test system: EKVX NSCLC
KM20L2 colon = test system: KM20L2 colon
P388 leukemia = test system: P388 leukemia
HL-60(TB) leukemia = test system: HL-60(TB) leukemia
DLD-1 colon = test system: DLD-1 colon
SK-MEL-5 melanoma = test system: SK-MEL-5 melanoma
NCI-H522 lung = test system: NCI-H522 lung
SNB-19 CNS = test system: SNB-19 CNS

## CN(C)CCOc1cc2c(c3ccccc13)-c1ccccc1C2O (stereo not drawn)
SN12K1 renal
  TGI: 19.5 µM
MOLT-4 leukemia
  TGI: 14.5 µM
SK-MEL-28 melanoma
  TGI: 30.2 µM
HOP-62 NSCLC
  TGI: 29 µM
LOX IMVI melanoma
  TGI: 23.9 µM
NCI-H226 lung
  TGI: 29.1 µM
OVCAR-8 ovarian
  TGI: 24.7 µM
OVCAR-4 ovarian
  TGI: 32.9 µM
MALME-3M melanoma
  TGI: 34.8 µM
HCT-116 colon
  TGI: 26.9 µM
SF-295 CNS
  TGI: 48.7 µM
DMS 114 small cell lung
  TGI: 26.2 µM
SNB-78 CNS
  TGI: 31.6 µM
HCT-15 colon
  TGI: 25.5 µM
COLO 205 colon
  TGI: 27.4 µM
M19-MEL melanoma
  TGI: 30.9 µM
UO-31 renal
  TGI: 25.2 µM
CCRF-CEM leukemia
  TGI: 33.1 µM
A549 NSCLC
  TGI: 29.3 µM
SF-539 CNS
  TGI: 27.5 µM
DMS 273 small cell lung
  TGI: 29 µM
SK-OV-3 ovarian
  TGI: 30.1 µM
UACC-257 melanoma
  TGI: 29.4 µM
HT29 colon
  TGI: 27.8 µM
KM12 colon
  TGI: 29.5 µM
OVCAR-3 ovarian
  TGI: 30.1 µM
UACC-62 melanoma
  TGI: 31.5 µM
P388/ADR leukemia
  TGI: 33.3 µM
SW-620 colon
  TGI: 24.8 µM
NCI-H23 lung
  TGI: 32.2 µM
SK-MEL-2 melanoma
  TGI: 31.4 µM
SN12C renal
  TGI: 26.9 µM
NCI-H460 lung
  TGI: 22 µM
OVCAR-5 ovarian
  TGI: 17.6 µM
K-562 leukemia
  TGI: 38 µM
XF 498 CNS
  TGI: 25.7 µM
CAKI-1 renal
  TGI: 26.7 µM
HOP-18 NSCLC
  TGI: 29.5 µM
HOP-92 NSCLC
  TGI: 19.5 µM
A498 renal
  TGI: 29.8 µM
RPMI-8226 leukemia
  TGI: 31.2 µM
SNB-75 CNS
  TGI: 24.7 µM
U251 CNS
  TGI: 28.9 µM
MCF7 breast
  TGI: 28.3 µM
RXF 393 renal
  TGI: 10.1 µM
NCI/ADR-RES ovarian
  TGI: 19.5 µM
IGROV1 ovarian
  TGI: 32.4 µM
HCC-2998 colon
  TGI: 28.2 µM
SF-268 CNS
  TGI: 28.3 µM
EKVX NSCLC
  TGI: 28.2 µM
KM20L2 colon
  TGI: 29.9 µM
P388 leukemia
  TGI: > 100 µM
HL-60(TB) leukemia
  TGI: 26.6 µM
DLD-1 colon
  TGI: 30.2 µM
SK-MEL-5 melanoma
  TGI: 29.1 µM
NCI-H522 lung
  TGI: 30.7 µM
SNB-19 CNS
  TGI: 20.2 µM

## CCn1c(=O)c(C(=O)O)c(Cl)c2cc3c(cc21)OCO3
SN12K1 renal
  TGI: > 100 µM
MOLT-4 leukemia
  TGI: > 100 µM
SK-MEL-28 melanoma
  TGI: > 100 µM
HOP-62 NSCLC
  TGI: > 100 µM
LOX IMVI melanoma
  TGI: > 100 µM
NCI-H226 lung
  TGI: > 100 µM
OVCAR-8 ovarian
  TGI: > 100 µM
OVCAR-4 ovarian
  TGI: > 100 µM
MALME-3M melanoma
  TGI: > 100 µM
HCT-116 colon
  TGI: > 100 µM
SF-295 CNS
  TGI: > 100 µM
SNB-78 CNS
  TGI: > 100 µM
HCT-15 colon
  TGI: > 100 µM
COLO 205 colon
  TGI: > 100 µM
M19-MEL melanoma
  TGI: > 100 µM
UO-31 renal
  TGI: > 100 µM
CCRF-CEM leukemia
  TGI: > 100 µM
A549 NSCLC
  TGI: > 100 µM
SF-539 CNS
  TGI: > 100 µM
DMS 273 small cell lung
  TGI: > 100 µM
SK-OV-3 ovarian
  TGI: > 100 µM
UACC-257 melanoma
  TGI: > 100 µM
HT29 colon
  TGI: > 100 µM
KM12 colon
  TGI: > 100 µM
OVCAR-3 ovarian
  TGI: > 100 µM
UACC-62 melanoma
  TGI: > 100 µM
P388/ADR leukemia
  TGI: > 100 µM
SW-620 colon
  TGI: > 100 µM
NCI-H23 lung
  TGI: > 100 µM
SK-MEL-2 melanoma
  TGI: > 100 µM
SN12C renal
  TGI: > 100 µM
NCI-H460 lung
  TGI: > 100 µM
OVCAR-5 ovarian
  TGI: > 100 µM
K-562 leukemia
  TGI: > 100 µM
XF 498 CNS
  TGI: > 100 µM
CAKI-1 renal
  TGI: > 100 µM
HOP-18 NSCLC
  TGI: > 100 µM
HOP-92 NSCLC
  TGI: > 100 µM
A498 renal
  TGI: > 100 µM
RPMI-8226 leukemia
  TGI: > 100 µM
SNB-75 CNS
  TGI: > 100 µM
U251 CNS
  TGI: > 100 µM
MCF7 breast
  TGI: > 100 µM
RXF 393 renal
  TGI: > 100 µM
NCI/ADR-RES ovarian
  TGI: > 100 µM
IGROV1 ovarian
  TGI: > 100 µM
HCC-2998 colon
  TGI: > 100 µM
SF-268 CNS
  TGI: > 100 µM
EKVX NSCLC
  TGI: > 100 µM
KM20L2 colon
  TGI: > 100 µM
P388 leukemia
  TGI: > 100 µM
HL-60(TB) leukemia
  TGI: > 100 µM
DLD-1 colon
  TGI: > 100 µM
SK-MEL-5 melanoma
  TGI: > 100 µM
NCI-H522 lung
  TGI: > 100 µM
SNB-19 CNS
  TGI: > 100 µM
